The subject of series [1] is Pythium ultimum. Kind of series: Pythium ultimum/Liquid Culture (Seedling Damping Off). In kind it is cell-based. Particulars: Globisporangium ultimum, read-out: inhibit fungal infestation.
The subject of series [2] is Blumeria graminis f. Sp. tritici (Erysiphe graminis f. Sp. tritici). Kind of series: Blumeria graminis f. Sp. tritici (Erysiphe graminis f. Sp. tritici)/Wheat/Leaf Disc Preventative (Powdery Mildew on Wheat). It counts as in vivo. As to conditions: foliar, read-out: inhibit fungal infestation.
The subject of series [3] is Phytophthora infestans. Briefly: whole plant or invertebrate. It counts as in vivo. As to conditions: in Solanum lycopersicum, foliar, read-out: inhibit fungal infestation.
Series [4] concerns Plasmopara viticola. Kind of series: whole plant or invertebrate. It counts as in vivo. Particulars: foliar, read-out: inhibit fungal infestation.
Series [5] relates to Phaeosphaeria nodorum (Septoria nodorum). Briefly: Phaeosphaeria nodorum (Septoria nodorum)/Wheat/Leaf Disc Preventative (Glume Blotch). It counts as in vivo. Particulars: Parastagonospora nodorum, foliar, read-out: inhibit fungal infestation.
Where [6] appears, read: 200 ppm, liquid culture (PDB), 24° C., growth inhibition photometrically 2-3 days after application.
Where [7] appears, read: 200 ppm, wheat leaf segments cv. Kanzler, preventative, 6-8 days after application, untreated control infected to over 80%.
Where [8] appears, read: 200 ppm, wheat leaf segments cv. Kanzler, preventative, 5-7 days after application, untreated control infected to over 80%.

Like-named read-outs stand apart in the source and are kept apart here.

As usually defined, the melting point is the temperature of the solid-liquid transition.

Regarding `CO/N=C/C(C)(C)NC(=O)C(Oc1ccc2ncc(OC)cc2c1)SC` (stereo not shown) [Compound 1, N-(2-Methoxyimino-1,1-dimethyl-ethyl)-2-(3-methoxy-quinolin-6-yloxy)-2-methylsulfanyl-acetamide], the melting point was in the range of 122 to 124 °C. Also, in series [1] (setting [6]), the inhibition at 200 ppm was at least 80%. The inhibition at 200 ppm in series [2] (setting [7]) was at least 80%. Further, in series [3], the inhibition at 200 ppm is at least 80%.
As to `CSc1cnc2ccc(OC(SC)C(=O)NC(C)(C)C#N)cc2c1` (stereo not shown) [Compound 68, N-(Cyano-dimethyl-methyl)-2-methylsulfanyl-2-(3-methylsulfanyl-quinolin-6-yloxy)-acetamide], the inhibition at 200 ppm in series [1] (setting [6]), in series [4] and in series [3] was at least 80% in each case.
Regarding `C#CC(C)(C#C)NC(=O)C(Oc1cc(C)c2ncc(OCC)cc2c1)SC` (stereo not shown) [Compound 23, 2-(3-Ethoxy-8-methyl-quinolin-6-yloxy)-N-(1-ethynyl-1-methyl-prop-2-ynyl)-2-methylsulfanyl-acetamide], the melting point lay within 143 to 145 °C. Further, in series [1] (setting [6]), the inhibition at 200 ppm is at least 80%. Moreover, the inhibition at 200 ppm in series [4] is at least 80%. Further, the inhibition at 200 ppm in series [5] (setting [8]) was at least 80%. For the same molecule, the inhibition at 200 ppm in series [2] (setting [7]) was at least 80%.
`CC#CC(C)(C)NC(=O)C(Oc1cc(Cl)c2ncc(OC)cc2c1)SC` (stereo not shown) [Compound 14, 2-(8-Chloro-3-methoxy-quinolin-6-yloxy)-N-(1,1-dimethyl-but-2-ynyl)-2-methylsulfanyl-acetamide] displayed a melting point of 133 to 136 °C. In series [1], the inhibition at 200 ppm was at least 80%. Besides, in series [4], the inhibition at 200 ppm is at least 80%. In addition, in series [5], the inhibition at 200 ppm was at least 80%. In addition, the inhibition at 200 ppm in series [2] is at least 80%. Also, the inhibition at 200 ppm in series [3] was at least 80%.
In the case of `CSc1cnc2ccc(OC(SC)C(=O)NC(C)(C#N)C3CC3)cc2c1` (stereo not shown) [Compound 65, N-(Cyano-cyclopropyl-methyl-methyl)-2-methylsulfanyl-2-(3-methyl-sulfanyl-quinolin-6-yloxy)-acetamide], the inhibition at 200 ppm in series [1] (setting [6]), in series [4], in series [5] (setting [8]) and in series [3] was at least 80% throughout.
Turning to `CCC(Oc1ccc2ncc(SC)cc2c1)C(=O)NC(C)(C)C` (stereo not shown) [Compound 30, N-tert-Butyl-2-(3-methylsulfanyl-quinolin-6-yloxy)-butyramide], the melting point fell in the range of 113 to 115 °C. Further, the inhibition at 200 ppm in series [1] (setting [6]) is at least 80%. Further, the inhibition at 200 ppm in series [4] was at least 80%. Moreover, in series [2] (setting [7]), the inhibition at 200 ppm is at least 80%. Besides, the inhibition at 200 ppm in series [3] was at least 80%.
For the molecule `COCC#CC(C)(C)NC(=O)C(Oc1cc(C)c2ncc(OC)cc2c1)SC` (stereo not shown) [Compound 17, N-(4-Methoxy-1,1-dimethyl-but-2-ynyl)-2-(3-methoxy-8-methyl-quinolin-6-yloxy)-2-methylsulfanyl-acetamide], the melting point lay within 94 to 98 °C. Further, the inhibition at 200 ppm in series [1] is at least 80%. In series [4], the inhibition at 200 ppm is at least 80%. Also, the inhibition at 200 ppm in series [5] was at least 80%. The inhibition at 200 ppm in series [2] is at least 80%. Moreover, in series [3], the inhibition at 200 ppm was at least 80%.
In turn, `COc1cnc2ccc(OC(SC)C(=O)NC(C)(C)C)cc2c1` (stereo not shown) [Compound 2, N-tert-Butyl-2-(3-methoxy-quinolin-6-yloxy)-2-methylsulfanyl-acetamide] had a melting point of 110 to 115 °C. The inhibition at 200 ppm in series [1] (setting [6]) was at least 80%. The inhibition at 200 ppm in series [2] (setting [7]) is at least 80%. The inhibition at 200 ppm in series [3] was at least 80%.
Regarding `COc1cnc2c(C)cc(OC(SC)C(=O)NC(C)(C)C)cc2c1` (stereo not shown) [Compound 16, N-tert-Butyl-2-(3-methoxy-8-methyl-quinolin-6-yloxy)-2-methylsulfanyl-acetamide], the melting point was 147 to 150 °C. Also, the inhibition at 200 ppm in series [1] (setting [6]) was at least 80%. Further, the inhibition at 200 ppm in series [5] (setting [8]) was at least 80%. Further, the inhibition at 200 ppm in series [2] (setting [7]) was at least 80%. Besides, the inhibition at 200 ppm in series [3] was at least 80%.
Molecule `CO/N=C/C(C)(C)NC(=O)C(Oc1cc(Cl)c2ncc(OC)cc2c1)SC` (stereo not shown) [Compound 15, 2-(8-Chloro-3-methoxy-quinolin-6-yloxy)-N-(2-methoxyimino-1,1-dimethyl-ethyl)-2-methylsulfanyl-acetamide] yielded a melting point of 124 to 125 °C. The inhibition at 200 ppm in series [1] (setting [6]) is at least 80%. The inhibition at 200 ppm in series [4] was at least 80%. The inhibition at 200 ppm in series [5] (setting [8]) is at least 80%. In addition, in series [2] (setting [7]), the inhibition at 200 ppm is at least 80%. Besides, the inhibition at 200 ppm in series [3] is at least 80%.
`C#CC(C)(C)NC(=O)C(CC)Oc1ccc2ncc(OC)cc2c1` (stereo not shown) [Compound 7, N-(1,1-Dimethyl-prop-2-ynyl)-2-(3-methoxy-quinolin-6-yloxy)-butyramide]: the melting point is 109 to 112 °C. Further, in series [1] (setting [6]), the inhibition at 200 ppm was at least 80%. In series [2] (setting [7]), the inhibition at 200 ppm was at least 80%. Moreover, the inhibition at 200 ppm in series [3] is at least 80%.
Molecule `CCOc1cnc2ccc(OC(SC)C(=O)NC(C)(C)C)cc2c1` (stereo not shown) [Compound 26, N-tert-Butyl-2-(3-ethoxy-quinolin-6-yloxy)-2-methylsulfanyl-acetamide] had a melting point of 120 to 123 °C. The inhibition at 200 ppm in series [1] (setting [6]) is at least 80%. Also, the inhibition at 200 ppm in series [5] (setting [8]) is at least 80%. The inhibition at 200 ppm in series [2] (setting [7]) is at least 80%.
Turning to `C#CC(C)(C)NC(=O)C(Oc1cc(Cl)c2ncc(SC)cc2c1)SC` (stereo not shown) [Compound 32, 2-(8-Chloro-3-methylsulfanyl-quinolin-6-yloxy)-N-(1,1-dimethyl-prop-2-ynyl)-2-methylsulfanyl-acetamide], the melting point fell in the range of 157 to 159 °C. Further, the inhibition at 200 ppm in series [1] (setting [6]) was at least 80%. For the same molecule, the inhibition at 200 ppm in series [4] was at least 80%. Moreover, in series [3], the inhibition at 200 ppm is at least 80%.
For the molecule `C#CC(C)(C)NC(=O)C(Oc1cc(C)c2ncc(OCC)cc2c1)SC` (stereo not shown) [Compound 25, N-(1,1-Dimethyl-prop-2-ynyl)-2-(3-ethoxy-8-methyl-quinolin-6-yloxy)-2-methylsulfanyl-acetamide], the melting point is 160 to 162 °C. The inhibition at 200 ppm in series [1] (setting [6]) was at least 80%. Besides, in series [4], the inhibition at 200 ppm was at least 80%. In addition, the inhibition at 200 ppm in series [5] (setting [8]) is at least 80%. Besides, in series [2] (setting [7]), the inhibition at 200 ppm is at least 80%.
Turning to `COCC(C)(C#N)NC(=O)C(Oc1cc(C)c2ncc(OC)cc2c1)SC` (stereo not shown) [Compound 18, N-(1-Cyano-2-methoxy-1-methyl-ethyl)-2-(3-methoxy-8-methyl-quinolin-6-yloxy)-2-methylsulfanyl-acetamide], the melting point is 123 to 129 °C. In addition, the inhibition at 200 ppm in series [1] (setting [6]) was at least 80%. The inhibition at 200 ppm in series [4] is at least 80%. Also, the inhibition at 200 ppm in series [2] (setting [7]) is at least 80%. For the same molecule, the inhibition at 200 ppm in series [3] is at least 80%.
As for `CCSc1cnc2ccc(OC(SC)C(=O)NC(C)(C)/C=N/OC)cc2c1` (stereo not shown) [Compound 64, 2-(3-Ethylsulfanyl-quinolin-6-yloxy)-N-(2-methoxyimino-1,1-dimethyl-ethyl)-2-methylsulfanyl-acetamide], the melting point lay in the range of 105 to 107 °C. Moreover, the inhibition at 200 ppm in series [1] (setting [6]) was at least 80%. The inhibition at 200 ppm in series [4] is at least 80%. Further, the inhibition at 200 ppm in series [2] (setting [7]) was at least 80%. In series [3], the inhibition at 200 ppm is at least 80%.
Molecule `CC#CC(C)(C)NC(=O)C(Oc1cc(Cl)c2ncc(SC)cc2c1)SC` (stereo not shown) [Compound 33, 2-(8-Chloro-3-methylsulfanyl-quinolin-6-yloxy)-N-(1,1-dimethyl-but-2-ynyl)-2-methylsulfanyl-acetamide] came in with a melting point of 153 to 155 °C. The inhibition at 200 ppm in series [1] was at least 80%. The inhibition at 200 ppm in series [4] was at least 80%. Further, the inhibition at 200 ppm in series [3] was at least 80%.
As for `C#CC(C)(C)NC(=O)C(CC)Oc1ccc2ncc(SC)cc2c1` (stereo not shown) [Compound 29, N-(1,1-Dimethyl-prop-2-ynyl)-2-(3-methylsulfanyl-quinolin-6-yloxy)-butyramide], the melting point is 121 to 123 °C. In series [1] (setting [6]), the inhibition at 200 ppm was at least 80%. For the same molecule, in series [4], the inhibition at 200 ppm was at least 80%. For the same molecule, in series [2] (setting [7]), the inhibition at 200 ppm is at least 80%. The inhibition at 200 ppm in series [3] is at least 80%.
Molecule `C#CC(C)(C=C)NC(=O)C(Oc1ccc2ncc(SC)cc2c1)SC` (stereo not shown) [Compound 63, N-(1-Ethynyl-1-methyl-allyl)-2-methylsulfanyl-2-(3-methylsulfanyl-quinolin-6-yloxy)-acetamide] gave a melting point of 121 to 123 °C. Further, the inhibition at 200 ppm in series [1] (setting [6]) is at least 80%. Further, the inhibition at 200 ppm in series [4] was at least 80%. Further, the inhibition at 200 ppm in series [3] is at least 80%.
As to `C#CC(C)(C)NC(=O)C(CC)Oc1cc(C)c2ncc(SC)cc2c1` (stereo not shown) [Compound 37, N-(1,1-Dimethyl-prop-2-ynyl)-2-(8-methyl-3-methylsulfanyl-quinolin-6-yloxy)-butyramide], the melting point was 134 to 136 °C. Further, the inhibition at 200 ppm in series [1] (setting [6]) is at least 80%. In series [4], the inhibition at 200 ppm is at least 80%. In addition, in series [5] (setting [8]), the inhibition at 200 ppm is at least 80%.
For `COCC#CC(C)(C)NC(=O)C(Oc1ccc2ncc(OC)cc2c1)SC` (stereo not shown) [Compound 4, N-(4-Methoxy-1,1-dimethyl-but-2-ynyl)-2-(3-methoxy-quinolin-6-yloxy)-2-methylsulfanyl-acetamide], the melting point lay in the range of 95 to 98 °C. The inhibition at 200 ppm in series [1] is at least 80%. In series [4], the inhibition at 200 ppm is at least 80%. In addition, in series [2], the inhibition at 200 ppm was at least 80%. In addition, in series [3], the inhibition at 200 ppm was at least 80%.

Source of the values: US20130065922A1, “NOVEL AMIDES AS FUNGICIDES” (priority 2010, published 2013).
